According to US20260183274A1, “PDK1 REGULATORY COMPOUND AND COMPOSITION CONTAINING THE SAME” (PROVIBIO CO., LTD., priority 2024, published 2026):

What was measured:
[1] = test system: Human B Lymphocyte cell line, SU-DHL-8; test: Relative cell viability CCK-8, SU-DHL-8; assay type: cell-based; conditions: for viability at 1 µM / viability at 10 µM / viability at 30 µM / viability at 50 µM: Homo sapiens, SU-DHL-8, 48 h; for viability at 1 µM: read-out: Relative cell viability (%), SU-DHL-8, 1 μM; for viability at 10 µM: read-out: Relative cell viability (%), SU-DHL-8, 10 μM; for viability at 30 µM: read-out: Relative cell viability (%), SU-DHL-8, 30 μM; for viability at 50 µM: read-out: Relative cell viability (%), SU-DHL-8, 50 μM
Experimental: Human-derived B lymphoma cell line SU-DHL-8 (Cat. #CRL-2961) purchased from ATCC was cultured in RPMI-1640 medium containing 10% FBS, 100 U/mL penicillin, and 100 μg/mL streptomycin.
The cell culture medium was then harvested, centrifuged at 1,300 rpm for 5 minutes, and the supernatant was removed. The cells were resuspended in the same medium and dispensed into a 96-well plate (Costar 96-well cell culture plate, Corning) at 90 μL per well, resulting in the conditions specified in Table 5.
Then, 10 μL of CCK-8 was added to each well, and the plates were incubated again at 37° C. in a 5% CO2 incubator for 4 hours.
In other words, when the survival rate of untreated cells (DMSO) is set at 100%, the relative cell survival rate in each group treated with the drug at different concentrations is indicated.

[2] = test system: T cells isolated from mouse spleens; test: T cell proliferation inhibition (CFSE flow cytometry, anti-CD3/anti-CD28 stimulation); assay type: cell-based; conditions: mouse spleen T cells, 3 days; for inhibition at 0.01 µM / inhibition at 0.1 µM / inhibition at 1 µM / inhibition at 10 µM / inhibition at 30 µM / inhibition at 50 µM: Mus musculus, T-cell, 72 h, read-out: Proliferation inhibition rate (%)
In short: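 Splenic T cells from 7-week-old C57BL/6 mice were MACS-isolated, CFSE-labelled, seeded at 2×10^5 cells/well and activated with anti-CD3/anti-CD28 (0.5 μg/mL each). Compound at 10 nM–50 μM (six levels, triplicate) was present for 3 days at 37 °C before flow cytometric readout of proliferation inhibition rate.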

[3] = 48 hours, untreated (DMSO) = 100%
[4] = 1 μM, 48 hours, untreated (DMSO) = 100%
[5] = 10 μM, 48 hours, untreated (DMSO) = 100%
[6] = 30 μM, 48 hours, untreated (DMSO) = 100%
[7] = 50 μM, 48 hours, untreated (DMSO) = 100%

Structure (SMILES)	viability at 1 µM [1, 3] [%]	viability at 10 µM [1, 3] [%]	viability at 30 µM [1, 3] [%]	viability at 50 µM [1, 3] [%]	inhibition at 0.01 µM ([2]; compound 10 nM) [%]	inhibition at 0.1 µM ([2]; compound 100 nM) [%]	inhibition at 1 µM ([2]; compound 1 μM) [%]	inhibition at 10 µM ([2]; compound 10 μM) [%]	inhibition at 30 µM ([2]; compound 30 μM) [%]	inhibition at 50 µM ([2]; compound 50 μM) [%]	Relative cell viability (%), SU-DHL-8 [1, 4] [%]	Relative cell viability (%), SU-DHL-8 [1, 5] [%]	Relative cell viability (%), SU-DHL-8 [1, 6] [%]	Proliferation inhibition rate (%) ([2]; compound 10 nM)	Proliferation inhibition rate (%) ([2]; compound 100 nM)	Proliferation inhibition rate (%) ([2]; compound 1 μM)	Proliferation inhibition rate (%) ([2]; compound 10 μM)	Proliferation inhibition rate (%) ([2]; compound 30 μM)	Proliferation inhibition rate (%) ([2]; compound 50 μM)	further results
Nc1ncccc1C(=O)NCCCCCCCCCCCCN1CCSCC1 [Compound 4, 2-Amino-N-(12-thio-morpholin-4-yl-dodecyl)-nicotinamide]	7.58	5.49	4.68	4.45	2.7	100	100	100	100	100	–	–	–	–	–	–	–	–	–	–
CC(C)CN1CCN(CCCCCCCCCCCCC(=O)Nc2nc(N)c3[nH]cnc3n2)CC1 [Compound 6, 12-[4-(2-methylpropyl)piperazin-1-yl]dodecyl-N-(6-aminopurine-2-yl) carboxamide]	7.83	6.39	4.66	3.94	-18.5	100	100	100	100	100	–	–	–	–	–	–	–	–	–	–
COC(=O)CN1CCN(CCCCCCCCCCCCC(=O)Nc2nc(N)c3[nH]cnc3n2)CC1 [Compound 7, 12-[4-(2-methoxy-2-oxoethyl)piperazin-1-yl]dodecyl-N-(6-aminopurine-2-yl) carboxamide]	5.17	4.16	3.48	3.17	5.14	100	100	100	100	100	–	–	–	–	–	–	–	–	–	–
Nc1nc(NC(=O)CCCCCCCCCCCCN2CCNCC2)nc2nc[nH]c12 [Compound 8, 12-(piperazin-1-yl)dodecyl-N-(6-aminopurine-2-yl) carboxamide]	10.8	6.49	5.07	4.49	4.55	32.5	100	100	100	100	–	–	–	–	–	–	–	–	–	–
Nc1nc(NC(=O)CCCCCCCCCCCCN2CCC(O)CC2)nc2nc[nH]c12 [Compound 9, 12-(4-hydroxypiperidin-1-yl)dodecyl-N-(6-aminopurine-2-yl) carboxamide]	5.32	4.19	3.36	3.14	–	–	100	100	100	100	–	–	–	–	–	–	–	–	–	Proliferation inhibition rate (%) ([2]; compound 10 nM, listed as GO83, 0.01 µM): 38.33%
Nc1ncccc1C(=O)NCCCCCCCCCCCCN1CCCCC1 [Compound 18, 2-amino-N-(12-(piperidin-1-yl)dodecyl)nicotinamide]	5.28	4.5	4.09	3.44	1.87	76.1	100	100	100	100	–	–	–	–	–	–	–	–	–	–
CN(C)C1CCN(CCCCCCCCCCCCNC(=O)c2cccnc2N)C1 (stereo not drawn) [Compound 19, 2-Amino-N-(12-(3-(dimethylamino)pyrrolidin-1-yl)dodecyl)nicotinamide]	8.51	7.51	5.98	5.08	-14.4	100	100	100	100	100	–	–	–	–	–	–	–	–	–	–
Nc1ncccc1C(=O)NCCCCCCCCCCCCN1CCCC1 [Compound 20, 2-Amino-N-(12-(pyrrolidin-1-yl)dodecyl)nicotinamide]	7.74	5.34	4.89	3.68	3.46	100	100	100	100	100	–	–	–	–	–	–	–	–	–	–
CC1CN(CCCCCCCCCCCCNC(=O)c2cccnc2N)CC(C)O1 (stereo not drawn) [Compound 21, 2-Amino-N-(12-(2,6-dimethylmorpholino)dodecyl) nicotinamide]	–	–	–	–	–	–	–	–	–	–	9.64	7.68	3.70	−13.87	100.00	100.00	100.00	100.00	100.00	–
CC1(C)CCN(CCCCCCCCCCCCNC(=O)c2cccnc2N)C1 [Compound 22, 2-Amino-N-(12-(3,3-dimethylpyrrolidin-1-yl)dodecyl) nicotinamide]	–	–	–	–	–	–	–	–	–	–	6.46	2.85	2.45	−0.80	100.00	100.00	100.00	100.00	100.00	Relative cell viability (%), SU-DHL-8 [1, 7]: 1.67%
CC1CCN(CCCCCCCCCCCCNC(=O)c2cccnc2N)C1 (stereo not drawn) [Compound 24, 2-Amino-N-(12-(3-methylpyrrolidin-1-yl)dodecyl) nicotinamide]	–	–	–	–	–	–	–	–	–	–	8.38	1.65	0.62	−7.33	100.00	100.00	100.00	100.00	100.00	–
Nc1ncccc1C(=O)NCCCCCCCCCCCCN1CCS(=O)(=O)CC1 [Compound 25, 2-Amino-N-(12-(1,1-dioxidothiomorpholino)dodecyl) nicotinamide]	–	–	–	–	–	–	–	–	–	–	9.73	1.26	0.11	−2.67	89.43	100.00	100.00	100.00	100.00	Relative cell viability (%), SU-DHL-8 [1, 7]: 0.95%
Nc1ncccc1C(=O)NCCCCCCCCCCCCN1CCC(F)C1 (stereo not drawn) [Compound 26, 2-Amino-N-(12-(3-fluoropyrrolidin-1-yl)dodecyl) nicotinamide]	–	–	–	–	–	–	–	–	–	–	1.70	1.04	0.05	2.13	100.00	100.00	100.00	100.00	100.00	–
Nc1ncccc1C(=O)NCCCCCCCCCCCCN1CCN(Cc2ccc(F)cc2)CC1 [Compound 27, 2-Amino-N-(12-(4-(4-fluorobenzyl)piperazin-1-yl)dodecyl)nicotinamide]	6.24	4.97	2.03	0.56	2.27	83.3	100	100	100	100	–	–	–	–	–	–	–	–	–	–
Nc1ncccc1C(=O)NCCCCCCCCCCCF [Compound 70, 2-Amino-N-(11-fluoro-undecyl)-nicotinamide]	5.01	4.94	1.45	–	–	–	–	–	–	–	–	–	–	–	–	–	–	–	–	Relative cell viability (%), SU-DHL-8 ([1]; human, 48 h, 50 µM): −0.57%
Cl.Nc1ncccc1C(=O)NCCCCCCCCCCCF [Compound 71, 3-(11-fluoro-undecylcarbamoyl)-pyridin-2-yl-ammonium chloride]	–	–	–	0.75	–	–	–	–	–	–	–	–	–	–	–	–	–	–	–	Relative cell viability (%), SU-DHL-8 ([1]; human, 48 h, 1 µM): 5.57%; Relative cell viability (%), SU-DHL-8 ([1]; human, 48 h, 10 µM): 4.05%; Relative cell viability (%), SU-DHL-8 ([1]; human, 48 h, 30 µM): 2.04%
